Measurements published in PMC10098121, “Amphipathic barbiturates as marine product mimics with cytolytic and immunogenic effects on head and neck squamous cell carcinoma cell lines” (Frontiers in Pharmacology, 2023).

Experiments:
Assay type in all cases: cell-based, human
HSC-3 cells [1] = assay: Flow cytometric detection of apoptosis (Annexin V/PI); conditions: HSC-3, 24 h; cisplatin 50 µM, MPMs 5-20 µM
Experimental: HSC-3 and UT-SCC-24A cells were seeded, 300,000 cells/well, in 6-well plates and left to adhere overnight. The media was then removed and replaced by 2 ml complete DMEM/F-12 containing 5, 7.5, 10 or 20 µM of MPM-2:0, MPM-6:0, MPM-3:2 or MPM-4:2, or 50 µM cisplatin. Some cells were left untreated. The cells were then incubated for 24 h. Next, the cell supernatants were collected before the cells were trypsinized and spun down with the supernatants. For the staining, an apoptosis detection kit was used (#88-8005-74, Thermo Fisher Scientific). The cells were washed once in PBS and once in 1x binding buffer before being incubated with FITC labeled Annexin V diluted 1:25 in 1 × binding buffer for 15 min. Next the cells were washed in 1 × binding buffer before being incubated with PI diluted 1:100 in 1 × binding buffer for at least 5 min before analysis was performed on the LSR Fortessa (BD Biosciences, CA, United States). Analyses were performed in FlowJo™ v.10 (https://www.flowjo.com/).

HSC-3 cells [2] = assay: Live cell apoptosis assay (caspase 3/7, proliferation); conditions: HSC-3, 24 h; MPMs 5 or 10 µM, cisplatin 10 µM
Experimental: A black-walled 96-well plate (#6005182, PerkinElmer, Waltham, MA, United States) was coated with 50 µl myogel (0.5 mg/ml) per well. The next day, HSC-3 and UT-SCC-24A cells were stained with CellTrace Far Red (Invitrogen, Carlsbad, CA, USA) by resuspending 500,000 cells in 500 µl PBS and adding 0.5 µl of the dye before incubating the cells at 37°C for 20 min. Next, 2.5 ml of complete media was added to the cells, and they were incubated for another 5 min. The cells were then centrifuged and resuspended in complete media. The media remaining in the wells of the 96-well plate after myogel coating was removed and the cells were seeded with 1,000 cells/well in 100 µl of media. The cells were left to adhere overnight, and the following day, the media was replaced with 100 µl of media containing the Incucyte® caspase-3/7 green dye for apoptosis (Sartorius, Göttingen, Germany) (diluted 1:1,000), as well as 5 or 10 µM of the MPMs or 10 µM cisplatin. Control wells only contained media and the caspase-3/7 green dye. The plate was placed in the Incucyte S3 (Sartorius) and imaged at ×10 magnification every 2 hours for 24 h in total. Each condition had triplicate wells, and four images were taken per well. The experiment was conducted three times. The Incucyte software was used to analyze the area of red fluorescence (proliferation) and number of green and red objects (apoptotic cells).

[3] = system: phosphorylated eIF2α in HSC-3 cells; assay: Western blot for phosphorylated eIF2α; conditions: HSC-3, 24 h; cisplatin 50 µM, MPMs 5-20 µM
Experimental: (§1) HSC-3 and UT-SCC-24A cells were seeded, 300,000 cells/well, in 6-well plates and left to adhere overnight. The media was then removed and replaced by 2 ml complete DMEM/F-12 containing 5, 7.5, 10 or 20 µM of MPM-2:0, MPM-6:0, MPM-3:2 or MPM-4:2, or 50 µM cisplatin. Some cells were left untreated. The cells were then incubated for 24 h. Next, the cell supernatants were collected before the cells were trypsinized and spun down with the supernatants. The cells were then washed twice in ice-cold PBS before being resuspended in 100 µl RIPA buffer (25 mM Tris-HCl (pH 7,6), 150 mM NaCl, 0.1% SDS, 0.5% sodium deoxycholate, 1% Triton X-100) containing 1% protease inhibitor (SIGMAFASTTM, #S8830, Sigma-Aldrich) and incubated on a shaker for 30 min. Next, the samples were sonicated and then kept at −70°C before being used. The samples were kept on ice or at 4°C during the whole procedure. The samples were thawed on ice and the protein concentration was measured using the DC Protein Assay kit (#5000111, Bio-Rad Laboratories, Hercules, CA, United States). 8 μg of protein was taken from each sample and mixed with DTT (final concentration 50 mM) and 20% 5 × sample buffer (250 mM Tris-HCl pH 6.8, 10% SDS, 20% Glycerol, 0.01% Bromphenol Blue). […]

[4] = system: phosphorylated eIF2α in UT-SCC-24A cells; assay: Western blot for phosphorylated eIF2α; conditions: 24 h, cisplatin 50 µM, MPMs 5-20 µM
Experimental: as §1

N.N.[Cl][Pt][Cl] [Cisplatin, cisplatin, reference compound]
apoptotic (Annexin V+/PI−) population (in words) (HSC-3 cells [1]): small, but clearly apoptotic (Annexin V+/PI−) population | activation of caspase 3/7 / apoptosis (in words) (HSC-3 cells [2]): only induced apoptosis in a minority of HSC-3 cells | proliferation (area of red fluorescence, in words) (HSC-3 cells [2]): inhibited proliferation in HSC-3 cells | phosphorylation of eIF2α (in words) [3]: induced high levels of phosphorylated eIF2α | phosphorylation of eIF2α (in words) [4]: induced high levels of phosphorylated eIF2α
